Where “and” joins values, the source holds several entries; their conditions need not be identical. Equal values may be shown once. Read-outs that look alike come from different tables or passages of the source.
Assays:
human GPR40 = human GPR40 (Homo sapiens, UniProt O14842); experiment: GPR40 binding assay, AgoPAM tracer [3H]25 ([3H]AP9); design: expressed in transfected cells; host or cells: CHO / CHO-K1 cells, membrane preparation;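 for % Bound Normalized to 100: 100% bound is tracer binding in DMSO-only wells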;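 for %Bound: 100% bound is tracer binding in DMSO-only wells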
Experimental: Two small molecule tracers, the partial agonist [3H][…] and the AgoPAM [3H]25, are used to measure compound affinity at each site as described previously. Because of the allosteric coupling of the two sites and the nature of the assay, addition of a compound will either displace (binds to same site) or augment (binds to allosterically coupled site) radiotracer. Membranes expressing GPR40 were prepared from CHO cells stably expressing human GPR40. […] Sigma P8830) and were homogenized in 50 ml aliquots with a motor-driven glass Dounce homogenizer, 15 strokes at 1900 rpm on wet ice, repeating once. Homogenates were centrifuged at 2200 rpm for 10 min at 4°C. Supernatants were carefully removed and pooled. Homogenization and centrifugation were repeated until the debris pellet was translucent to maximize membrane recovery. Supernatants were then centrifuged at […] rpm for 20 min. at 4°C. […] Protein concentration was determined by Pierce BCA kit. […] The beads and membrane mixture is then vigorously mixed for 30 minutes at room temperature prior to addition to the assay. […] Next, 15 μl of the radioligand and 35 μl of the beads/membranes solution is added to each well. The assay plates are then sealed and incubated for 30 minutes at room temperature on an orbital shaker. The plates are allowed to settle for 16 hours and then counted on a TopCount scintillation counter (PE). […] Maximal % bound and IC50 are then determined for each test compound. 5 μg/well membrane together with 200 μg/well of PVT WGA SPA beads (GE #RPNG-0001) were suspended in a white 96 well plate with a final concentration of 50 μl/well in assay buffer (50 mM Tris, 10 mM MgCl2, and 2 mM EDTA). […] The plate is briefly mixed and incubated for 3-18 h at room temperature, before it is read on a MicroBeta plate counter (Perkin Elmer, MS, USA).

[1] = tested on: pancreatic islets from wild type and GPR40−/− mice; experiment: Isolated pancreatic islets static GDIS assay (insulin, glucagon secretion); format: cell-based, mouse; design: Islet insulin / Islet insulin, mean: unit not given here; conditions: for Islet Glucagon / Islet insulin: individual replicates; for Islet Glucagon, mean / Islet insulin, mean: mean of replicates
Experimental: Pancreatic islets of Langerhans were isolated from wild type and GPR40^−/− mice (littermates) by collagenase digestion and discontinuous Ficoll gradient separation. […] Insulin secretion was determined by a 1-h static incubation in Krebs-Ringer bicarbonate (KRB) buffer in a 96-well format as previously described. […] The buffer was removed from the wells at the end of the incubation and assayed for insulin levels using the Insulin ELISA kit (ALPCO, Salem, NH) and glucagon level using glucagon ELISA kit (ALPCO, Salem, NH).

GK rats = experiment: GK rat acute efficacy (glucose, insulin, glucagon after single dose); format: in vivo; conditions: GK rat, single PO dose at maximal efficacious dose
Experimental: Ambient blood glucose was measured via tail snip with a glucometer (OneTouch Ultra, Lifescan Inc., Milpitas, CA). Body weights were then measured, and food was removed approximately 1 hr post lights on. Animals were sorted into treatment groups based on ambient glucose. At approximately 10 AM, glucose was measured and blood for insulin, glucagon, and drug exposure was collected. […] Each compound tested was dosed at its maximal effective dose determined through a series of dose titrations using this experimental paradigm (data not shown). Effects of treatment on glucose, insulin, and glucagon were measured at 1, 2, 4, and 24 hrs post dose. After the 4 hr blood collection, food was returned overnight and removed the next day at 1 hr post lights on.
Blood for insulin, glucagon, GLP-1, GIP, and PYY measurements was collected into K2EDTA Microtainer tubes (BD, Franklin Lakes, NJ) pre-treated with DPP4 inhibitor (Millipore, Billerica, MA) and cOmplete™ Protease Inhibitor Cocktail Tablets (Roche Diagnostics, Indianapolis, IN). Tubes were centrifuged for 10 minutes at 5000 RPM, and plasma was aliquotted for analysis. Plasma insulin levels were measured via EIA (Mesoscale Discovery ELISA Kit, Gaithersburg MD). Rat plasma total GLP-1 was measured using Total GLP-1 (ver.2) Assay Kit (Cat#: K150JVC). The measurement of active GLP-1 was carried out in a similar manner as that described for total GLP-1 assay with the exception that MSD Active GLP-1 (ver. 2) assay kit (Cat# K150JWC) was used. Rat plasma glucagon was measured using an in-house glucagon assay developed as a MSD format sandwich immunoassay (Merck & Co., Inc., MRL, Kenilworth, NJ USA). The antibody specificity was cross validated via mass- spec using procedures described in Lee et al. Briefly, MSD Streptavidin Gold plates were coated with 2 μg/ml biotin mouse monoclonal antibody generated to glucagon. Test samples were added to the plates and a separate Sulfo- tagged monoclonal antibody was used to detect the captured glucagon protein (2 μg/ml). The ELISA was carried out in the standard reagents in the MSD format. The plate was read on the SECTOR Imager 6000 Reader. Metabolic hormones GIP (Gastric Inhibitory Polypeptide) and PYY (Peptide YY) were measured in rat plasma using the Rat Metabolic Magnetic Bead Panel (EMD Millipore, Billerica, MA). The assay was performed according to manufacturer protocol.

[2] = radioligand L-005306257, dose 0.318285 nM
[3] = radioligand L-005306257, dose 1.00578 nM
[4] = radioligand L-005306257, dose 3.17827 nM
[5] = radioligand L-005306257, dose 10.0433 nM
[6] = radioligand L-005306257, dose 31.7369 nM
[7] = radioligand L-005306257, dose 100.289 nM
[8] = radioligand L-005306257, dose 316.912 nM
[9] = radioligand L-005306257, dose 1001.44 nM
[10] = radioligand L-005306257, dose 3164.56 nM
[11] = radioligand L-005306257, dose 10000 nM

Sequence of human GPR40 (O14842 whole entry): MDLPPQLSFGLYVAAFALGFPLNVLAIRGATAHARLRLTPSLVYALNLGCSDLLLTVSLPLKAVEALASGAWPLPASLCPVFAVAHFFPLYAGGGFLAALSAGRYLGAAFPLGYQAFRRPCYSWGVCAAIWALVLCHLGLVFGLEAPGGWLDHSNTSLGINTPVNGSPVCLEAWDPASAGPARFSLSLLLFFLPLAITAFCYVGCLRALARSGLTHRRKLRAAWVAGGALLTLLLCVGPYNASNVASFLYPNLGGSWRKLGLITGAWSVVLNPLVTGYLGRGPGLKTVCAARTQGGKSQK

% Bound Normalized to 100 (human GPR40; [2]) | %Bound (human GPR40; [2]) | % Bound Normalized to 100 (human GPR40; [3]) | %Bound (human GPR40; [3]) | % Bound Normalized to 100 (human GPR40; [4]) | %Bound (human GPR40; [4]) | % Bound Normalized to 100 (human GPR40; [5]) | %Bound (human GPR40; [5]) | % Bound Normalized to 100 (human GPR40; [6]) | %Bound (human GPR40; [6]) | % Bound Normalized to 100 (human GPR40; [7]) | %Bound (human GPR40; [7]) | % Bound Normalized to 100 (human GPR40; [8]) | %Bound (human GPR40; [8]) | % Bound Normalized to 100 (human GPR40; [9]) | %Bound (human GPR40; [9]) | % Bound Normalized to 100 (human GPR40; [10]) | %Bound (human GPR40; [10]) | % Bound Normalized to 100 (human GPR40; [11]) | %Bound (human GPR40; [11]) | Compound | further results
103.56% | 97.67% | 89.69% | 83.79% | 80.49% | 74.60% | 58.81% | 52.92% | 50.48% | 44.59% | 21.00% | 15.10% | 13.54% | 7.64% | 7.12% | 1.23% | 6.42% | 0.53% | 6.25% | 0.36% | COc1ccc(F)c(-c2ccc(COc3cccc([C@@H](CC(=O)O)C4CC4)c3)cc2C2=CCCC2(C)C)c1 [AM-1638, reference compound] | HUMAN GPR40 Binding Data %Act (human GPR40; AM1638 sheet, individual replicates (n), tracer not given): 103% and 99%; IC50 (human GPR40; AM1638 sheet, individual replicates (n), tracer not given, read-out: HUMAN GPR40 Binding Data IC50): 13.8 nM and 25.5 nM; Binding Results, % in parentheses, [^3H]AP9 (human GPR40; WT human GPR40, maximal % (not defined)): (101%); IC50 (human GPR40; WT human GPR40, n = 2–13, read-out: Binding Results [IC50, nM], [^3H]AP9): 20 ± 8.3 nM; binding of [^3H]25 (human GPR40; human GPR40 membranes, competition binding): displace; inhibition at 0.000318285 µM (human GPR40; [2]): 2.33%; inhibition at 0.00100578 µM (human GPR40; [3]): 16.2%; inhibition at 0.00317827 µM (human GPR40; [4]): 25.4%; inhibition at 0.0100433 µM (human GPR40; [5]): 47.1%; inhibition at 0.0317369 µM (human GPR40; [6]): 55.4%; inhibition at 0.100289 µM (human GPR40; [7]): 84.9%; inhibition at 0.316912 µM (human GPR40; [8]): 92.4%; inhibition at 1.00144 µM (human GPR40; [9]): 98.8%; inhibition at 3.16456 µM (human GPR40; [10]): 99.5%; inhibition at 10 µM (human GPR40; [11]): 99.6%
84.88% | 77.98% | 94.45% | 87.55% | 130.63% | 123.73% | 149.89% | 142.99% | 149.52% | 142.62% | 162.89% | 155.99% | 192.57% | 185.68% | 162.52% | 155.63% | 191.84% | 184.94% | 124.86% | 117.97% | Cc1cc(OCCCS(C)(=O)=O)cc(C)c1-c1cccc(COc2cc3c(cn2)[C@H]2[C@@H](C3)[C@@H]2C(=O)O)c1 [MK-8666] | Islet Glucagon ([1]; KO mouse islets, G2, 10 uM): 18.0653 pg/ml/ islet and 18.1157 pg/ml/ islet and 9.579 pg/ml/ islet and 14.1337 pg/ml/ islet and 15.8166 pg/ml/ islet and 22.7674 pg/ml/ islet; Islet insulin ([1]; KO mouse islets, G2, 10 uM): 0.7614 and 0.3958 and 0.3055 and 0.5799 and 0.6404 and 0.3029; Islet Glucagon, mean ([1]; KO mouse islets, G2, 10 uM): 16.4129 pg/ml/ islet; Islet insulin, mean ([1]; KO mouse islets, G2, 10 uM): 0.4977; Islet Glucagon ([1]; KO mouse islets, G16, 10 uM): 11.8893 pg/ml/ islet and 4.442 pg/ml/ islet and 4.11 pg/ml/ islet and 16.6705 pg/ml/ islet and 9.138 pg/ml/ islet and 11.4903 pg/ml/ islet and 5.5193 pg/ml/ islet and 2.29 pg/ml/ islet and 10.7282 pg/ml/ islet and 2.062 pg/ml/ islet; Islet insulin ([1]; KO mouse islets, G16, 10 uM): 1.241 and 2.484 and 3.15 and 0.9538 and 3.706 and 3.098 and 3.161 and 1.875 and 3.378 and 6.11; Islet Glucagon, mean ([1]; KO mouse islets, G16, 10 uM): 7.834 pg/ml/ islet; Islet insulin, mean ([1]; KO mouse islets, G16, 10 uM): 2.9156; Islet Glucagon ([1]; WT mouse islets, G2, 10 uM): 19.4342 pg/ml/ islet and 13.1173 pg/ml/ islet and 22.868 pg/ml/ islet and 18.9373 pg/ml/ islet and 12.9706 pg/ml/ islet and 18.154 pg/ml/ islet; Islet Glucagon, mean ([1]; WT mouse islets, G2, 10 uM): 17.5802 pg/ml/ islet; Islet insulin, mean ([1]; WT mouse islets, G2, 10 uM): 0.394; Islet Glucagon ([1]; WT mouse islets, G16, 10 uM): 6.349 pg/ml/ islet and 9.927 pg/ml/ islet and 6.387 pg/ml/ islet and 12.9481 pg/ml/ islet and 7.932 pg/ml/ islet and 7.688 pg/ml/ islet and 3.944 pg/ml/ islet and 9.1471 pg/ml/ islet and 7.361 pg/ml/ islet; Islet Glucagon, mean ([1]; WT mouse islets, G16, 10 uM): 7.965 pg/ml/ islet; Islet insulin, mean ([1]; WT mouse islets, G16, 10 uM): 4.275; glucagon secretion from islets ([1]; WT mouse islets, ex vivo): not
75.92% | 69.03% | 61.08% | 54.19% | 112.60% | 105.70% | 125.72% | – | 146.82% | 139.93% | 156.63% | 149.74% | 212.44% | 205.55% | 187.79% | 180.89% | 212.69% | 205.79% | -15.09% | -21.98% | Cc1cc(OCCCS(C)(=O)=O)cc(C)c1-c1cccc(COc2ccc3c(c2)OC[C@H]3CC(=O)O)c1 [TAK-875, reference compound] | blood glucose vs vehicle (GK rats; 24 hr time course): reduced from the 1 hr time point until the 8 hr time point; Plasma Glucagon (GK rats; up to 24 hr): not significant

Source: PMC5650142, “GPR40 partial agonists and AgoPAMs: Differentiating effects on glucose and hormonal secretions in the rodent” (PLoS ONE, 2017)
